The numbers were not newly measured in patent US8022179B2 (priority 2005, dated 2011), which cites them from elsewhere.

The subject of this data set is wrinkles. The following applies: in vivo; cited from earlier work.

For ARGIRELINE, the wrinkle reduction entry is given as “affords wrinkle reduction in certain cases”.
